From US9751887B2, “Imidazo[1,2-b]pyridazine derivatives as kinase inhibitors” (Daiichi Sankyo Company, Limited, priority 2012, dated 2017)

Tests used:
ROS1 [1] = target: T1, ROS1 (Homo sapiens, UniProt P08922); assay: ROS1 kinase inhibitory activity evaluation (mobility shift, EZ Reader II); format: biochemical; details: ROS1 25 pg/μL, FL-Peptide 22 substrate, three separate measurements
T1 construct: purchased Carna Biosciences 08-163
Protocol: Next, a substrate reaction solution was prepared. […] Then, the reaction stop solution was added thereto at a concentration of 40 μL/well. Substrate phosphorylation intensity was measured using EZ Reader II (Caliper Life Sciences).

ROS1 [2] = target: T1, ROS1; assay: ROS1 autophosphorylation inhibitory activity evaluation (ADP-Glo); format: biochemical; details: 200 nM inactive ROS1, ATP 1 mM, 25° C. 1.5 hours, ADP generated, four separate measurements
How it was run: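 IC50 was derived by curve fitting of ADP output measured with ADP-Glo reagents. The output reflects ROS1 self-phosphorylation over 1.5 hours at 25° C. Buffer was HEPES pH 7.5 with MgCl2, Brij-58 and DTT, and ATP was 1 mM final.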

[3] = test system: HCC78 cells having ROS1 fusion gene; assay: HCC78 cell growth assay (CellTiter-Glo); format: cell-based; details: Homo sapiens, HCC78, 72 h, 72 hours culture, 2% FBS medium, luminescence, four separate measurements; read-out: growth inhibitory effect on HCC78 cells having ROS1 fusion gene IC50

T1 sequence (P08922 28-2347): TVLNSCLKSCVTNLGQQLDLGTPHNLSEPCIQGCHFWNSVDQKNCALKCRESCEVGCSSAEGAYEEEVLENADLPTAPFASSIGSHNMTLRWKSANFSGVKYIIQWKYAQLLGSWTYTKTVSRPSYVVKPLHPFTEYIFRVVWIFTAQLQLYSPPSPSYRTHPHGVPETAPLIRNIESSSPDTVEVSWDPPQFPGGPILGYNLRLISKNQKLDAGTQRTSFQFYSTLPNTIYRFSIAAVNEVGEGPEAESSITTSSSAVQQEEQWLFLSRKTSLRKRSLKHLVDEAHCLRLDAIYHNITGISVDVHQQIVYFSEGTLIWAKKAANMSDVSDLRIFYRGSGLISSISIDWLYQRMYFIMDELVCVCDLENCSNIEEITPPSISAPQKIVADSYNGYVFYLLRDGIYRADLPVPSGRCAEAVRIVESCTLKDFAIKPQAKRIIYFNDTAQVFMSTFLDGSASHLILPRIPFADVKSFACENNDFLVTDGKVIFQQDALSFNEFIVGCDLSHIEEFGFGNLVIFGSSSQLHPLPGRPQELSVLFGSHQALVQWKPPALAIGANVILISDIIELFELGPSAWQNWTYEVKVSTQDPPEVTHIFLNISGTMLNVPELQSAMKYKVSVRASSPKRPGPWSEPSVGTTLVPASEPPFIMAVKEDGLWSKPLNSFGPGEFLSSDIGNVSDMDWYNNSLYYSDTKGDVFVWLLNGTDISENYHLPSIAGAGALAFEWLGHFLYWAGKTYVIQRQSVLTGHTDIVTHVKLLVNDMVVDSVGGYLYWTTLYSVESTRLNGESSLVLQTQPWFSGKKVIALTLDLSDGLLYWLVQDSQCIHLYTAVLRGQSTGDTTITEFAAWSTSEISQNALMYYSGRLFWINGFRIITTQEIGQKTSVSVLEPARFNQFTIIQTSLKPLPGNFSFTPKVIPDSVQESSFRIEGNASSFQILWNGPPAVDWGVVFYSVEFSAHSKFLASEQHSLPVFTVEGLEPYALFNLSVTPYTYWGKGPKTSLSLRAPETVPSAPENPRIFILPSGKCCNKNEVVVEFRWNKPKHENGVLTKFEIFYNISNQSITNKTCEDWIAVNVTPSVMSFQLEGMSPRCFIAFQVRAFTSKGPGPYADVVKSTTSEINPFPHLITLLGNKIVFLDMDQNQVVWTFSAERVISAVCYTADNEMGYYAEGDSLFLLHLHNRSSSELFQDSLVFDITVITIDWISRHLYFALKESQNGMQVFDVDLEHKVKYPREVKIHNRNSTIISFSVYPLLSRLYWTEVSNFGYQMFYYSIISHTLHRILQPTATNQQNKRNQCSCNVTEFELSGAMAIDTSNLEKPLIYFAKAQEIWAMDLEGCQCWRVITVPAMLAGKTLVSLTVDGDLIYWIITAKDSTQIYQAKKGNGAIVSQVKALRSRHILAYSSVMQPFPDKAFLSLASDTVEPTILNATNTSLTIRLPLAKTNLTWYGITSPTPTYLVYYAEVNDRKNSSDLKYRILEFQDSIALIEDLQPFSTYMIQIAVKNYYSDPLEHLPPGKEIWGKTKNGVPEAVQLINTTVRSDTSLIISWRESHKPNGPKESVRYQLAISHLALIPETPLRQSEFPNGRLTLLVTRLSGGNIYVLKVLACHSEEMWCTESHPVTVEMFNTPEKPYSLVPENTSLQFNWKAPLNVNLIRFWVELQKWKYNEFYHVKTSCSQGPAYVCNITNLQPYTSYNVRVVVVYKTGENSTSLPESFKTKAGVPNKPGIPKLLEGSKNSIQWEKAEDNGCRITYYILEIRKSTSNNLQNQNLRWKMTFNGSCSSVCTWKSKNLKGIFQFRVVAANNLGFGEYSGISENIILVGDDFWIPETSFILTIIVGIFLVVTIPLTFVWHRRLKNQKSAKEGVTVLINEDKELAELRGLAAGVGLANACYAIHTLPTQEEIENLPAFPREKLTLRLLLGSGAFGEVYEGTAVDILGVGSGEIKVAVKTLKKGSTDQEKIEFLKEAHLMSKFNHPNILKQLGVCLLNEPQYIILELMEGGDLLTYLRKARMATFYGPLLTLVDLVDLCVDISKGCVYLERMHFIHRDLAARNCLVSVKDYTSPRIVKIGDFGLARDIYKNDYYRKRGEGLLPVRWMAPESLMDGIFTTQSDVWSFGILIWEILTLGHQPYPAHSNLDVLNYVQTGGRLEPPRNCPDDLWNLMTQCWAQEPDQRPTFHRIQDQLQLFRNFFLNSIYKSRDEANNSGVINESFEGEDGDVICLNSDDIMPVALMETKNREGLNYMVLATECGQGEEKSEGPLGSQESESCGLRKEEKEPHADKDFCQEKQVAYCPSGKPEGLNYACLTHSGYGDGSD

SMILES	IC50 (ROS1 [1]) [µM]	IC50 (ROS1 [2]) [µM]	IC50 [3] [µM]
CN(Cc1cncc(Cl)c1)c1ccc2ncc(-c3ccc(N4C[C@@H](N)CC4=O)cc3)n2n1 [Example 122, (4S)-4-Amino-1-[4-[6-[(5-chloro-3-pyridyl)methyl-methylamino]imidazo[1,2-b]pyridazin-3-yl]phenyl]pyrrolidin-2-one]	0.001 to 0.01	0.02 to 0.1	0.02 to 0.1
C[C@H](O)[C@@H](N)COc1ccc(-c2cnc3ccc(N[C@H](C)c4cccc(F)c4)nn23)cc1 [Example 55, (2S,3S)-3-Amino-4-[4-[6-[[(1R)-1-(3-fluorophenyl)ethyl]amino]imidazo[1,2-b]pyridazin-3-yl]phenoxy]butan-2-ol]	< 0.001	< 0.02	< 0.02
CNCCCOc1cccc(-c2cnc3ccc(N[C@H](C)c4cccc(F)c4)nn23)c1 [Example 66, N-[(1R)-1-(3-Fluorophenyl)ethyl]-3-[3-[3-(methylamino)propoxy]phenyl]imidazo[1,2-b]pyridazin-6-amine]	0.001 to 0.01	< 0.02	0.02 to 0.1
CN(Cc1cccc(F)c1)c1ccc2ncc(-c3ccc(N4C[C@@H](N)CC4=O)c(F)c3)n2n1 [Example 83, (4S)-4-Amino-1-[2-fluoro-4-[6-[(3-fluorophenyl)methyl-methylamino]imidazo[1,2-b]pyridazin-3-yl]phenyl]pyrrolidin-2-one]	0.001 to 0.01	0.02 to 0.1	0.02 to 0.1
C[C@@H](Oc1ccc2ncc(-c3ccc(N4C[C@@H](N)CC4=O)c(F)c3)n2n1)c1cncc(F)c1 [Example 109, (4S)-4-Amino-1-[2-fluoro-4-[6-[(1R)-1-(5-fluoro-3-pyridyl)ethoxy]imidazo[1,2-b]pyridazin-3-yl]phenyl]pyrrolidin-2-one]	0.01 to 0.06	0.1 to 0.15	0.02 to 0.1
C[C@@H](Nc1ccc2ncc(-c3ccc(OC[C@@H]4C[C@H](F)CN4)nc3)n2n1)c1cccc(F)c1 [Example 47, N-[(1R)-1-(3-Fluorophenyl)ethyl]-3-[6-[[(2S,4S)-4-fluoropyrrolidin-2-yl]methoxy]-3-pyridyl]imidazo[1,2-b]pyridazin-6-amine]	< 0.001	< 0.02	< 0.02
C[C@@H](Oc1ccc2ncc(-c3ccc(OC4CCNCC4)cc3)n2n1)c1cccc(F)c1 [Example 15, 6-[(1R)-1-(3-Fluorophenyl)ethoxy]-3-[4-(4-piperidyloxy)phenyl]imidazo[1,2-b]pyridazine]	0.001 to 0.01	0.02 to 0.1	0.1 to 0.6
C[C@@H](Oc1ccc2ncc(-c3ccc(OCC4CCNCC4)cc3)n2n1)c1cccc(F)c1 [Example 17, 6-[(1R)-1-(3-Fluorophenyl)ethoxy]-3-[4-(4-piperidylmethoxy)phenyl]imidazo[1,2-b]pyridazine]	0.001 to 0.01	0.02 to 0.1	0.1 to 0.6
NCC1CC(=O)N(c2ccc(-c3cnc4ccc(OCc5cccc(F)c5)nn34)cc2)C1 (stereo not drawn) [Example 74, 4-(Aminomethyl)-1-[4-[6-[(3-fluorophenyl)methoxy]imidazo[1,2-b]pyridazin-3-yl]phenyl]pyrrolidin-2-one]	0.001 to 0.01	0.1 to 0.15	0.1 to 0.6
CN(Cc1cncc(Cl)c1)c1ccc2ncc(-c3ccc(N4CC(C)(N)CC4=O)cc3)n2n1 (stereo not drawn) [Example 123, 4-Amino-1-[4-[6-[(5-chloro-3-pyridyl)methyl-methylamino]imidazo[1,2-b]pyridazin-3-yl]phenyl]-4-methylpyrrolidin-2-one]	0.01 to 0.06	0.1 to 0.15	0.02 to 0.1
CNCCCOc1ccc(-c2cnc3ccc(N[C@H](C)c4cccc(F)c4)nn23)cc1 [Example 31]	0.001 to 0.01	< 0.02	0.02 to 0.1
C[C@@H](Oc1ccc2ncc(-c3ccc(N4C[C@@H](N)CC4=O)cc3F)n2n1)c1cncc(F)c1 [Example 110, (4S)-4-Amino-1-[3-fluoro-4-[6-[(1R)-1-(5-fluoro-3-pyridyl)ethoxy]imidazo[1,2-b]pyridazin-3-yl]phenyl]pyrrolidin-2-one]	0.001 to 0.01	< 0.02	0.02 to 0.1

Other lines, results leading:

IC50 (ROS1 [1]) [µM]	IC50 (ROS1 [2]) [µM]	IC50 [3] [µM]	SMILES
0.001 to 0.01	0.02 to 0.1	0.1 to 0.6	C[C@@H](Oc1ccc2ncc(-c3ccc(N4C[C@@H](N(C)C)CC4=O)cc3)n2n1)c1cccc(F)c1 [Example 135, (4S)-4-(Dimethylamino)-1-[4-[6-[(1R)-1-(3-fluorophenyl)ethoxy]imidazo[1,2-b]pyridazin-3-yl]phenyl]pyrrolidin-2-one]
0.001 to 0.01	0.02 to 0.1	0.02 to 0.1	CN(Cc1cccc(F)c1)c1ccc2ncc(-c3ccc(N4CC(C)(N)CC4=O)cc3)n2n1 (single isomer, unassigned) [Example 87, 4-Amino-1-[4-[6-[(3-fluorophenyl)methyl-methylamino]imidazo[1,2-b]pyridazin-3-yl]phenyl]-4-methylpyrrolidin-2-one]
0.001 to 0.01	0.02 to 0.1	0.1 to 0.6	CCN(Cc1ccccc1)c1ccc2ncc(-c3ccc(N4C[C@@H](N)CC4=O)cc3)n2n1 [Example 95, (4S)-4-Amino-1-[4-[6-[benzo(ethyl)amino]imidazo[1,2-b]pyridazin-3-yl]phenyl]pyrrolidin-2-one]
0.001 to 0.01	0.02 to 0.1	0.02 to 0.1	Cc1ccc(F)cc1COc1ccc2ncc(-c3ccc(N4C[C@@H](N)CC4=O)cc3)n2n1 [Example 103, (4S)-4-Amino-1-[4-[6-[(5-fluoro-2-methylphenyl)methoxy]imidazo[1,2-b]pyriazin-3-yl]phenyl]pyrrolidin-2-one]
< 0.001	< 0.02	< 0.02	C[C@@H](Nc1ccc2ncc(-c3ccc(OC[C@H](N)CO)cc3)n2n1)c1cccc(F)c1 [Example 59, (2R)-2-Amino-3-[4-[6-[[(1R)-1-(3-fluorophenyl)ethyl]amino]imidazo[1,2-b]pyridazin-3-yl]phenoxy]propan-1-ol]
0.001 to 0.01	0.02 to 0.1	0.1 to 0.6	c1ccc(CNc2ccc3ncc(-c4cccc(OC[C@@H]5CCCN5)c4)n3n2)cc1 [Example 2, N-Benzyl-3-[3-[[(2S)-pyrrolidin-2-yl]methoxy]phenyl]imidazo[1,2-b]pyridazin-6-amine]
< 0.001	< 0.02	< 0.02	C[C@@H](Nc1ccc2ncc(-c3ccc(OC[C@@H]4CCN4)c(F)c3)n2n1)c1cccc(F)c1 [Example 44, 3-[4-[[(2S)-Azetidin-2-yl]methoxy]-3-fluoro-phenyl]-N-[(1R)-1-(3-fluorophenyl)ethyl]imidazo[1,2-b]pyridazin-6-amine]
0.001 to 0.01	< 0.02	< 0.02	CN(Cc1cncc(F)c1)c1ccc2ncc(-c3ccc(N4CC(C)(N)CC4=O)cc3)n2n1 (single isomer, unassigned) [Example 124, 4-Amino-1-[4-[6-[(5-fluoro-3-pyridyl)methyl-methylamino]imidazo[1,2-b]pyridazin-3-yl]phenyl]-4-methylpyrrolidin-2-one]
< 0.001	< 0.02	< 0.02	C[C@H](N)COc1ccc(-c2cnc3ccc(N[C@H](C)c4cccc(F)c4)nn23)cn1 [Example 63, 3-[6-[(2S)-2-Aminopropoxy]-3-pyridyl]-N-[(1R)-1-(3-fluorophenyl)ethyl]imidazo[1,2-b]pyridazin-6-amine]
